Test results published in BindingDB's records for PubMed 21481795 (Tufts Medical Center).

Key:
[1] = target: Serine/threonine-protein kinase OSR1 (OXSR1) (Homo sapiens) (UniProt O95747); test: Inhibition of human OSR1 preincubated for 2 hrs followed by ATP addition and measured every 2 mins for […] by spectrophotometric analysis
[2] = target: Tyrosine-protein kinase Tec (Homo sapiens) (UniProt P42680); test: Inhibition of human wild type TEC using PolyEY as substrate preincubated for 2 hrs followed by ATP addition and measured every 2 mins for […] by spectrophotometric analysis
Sequence of Tyrosine-protein kinase Tec (Homo sapiens) (P42680 whole entry, looked up): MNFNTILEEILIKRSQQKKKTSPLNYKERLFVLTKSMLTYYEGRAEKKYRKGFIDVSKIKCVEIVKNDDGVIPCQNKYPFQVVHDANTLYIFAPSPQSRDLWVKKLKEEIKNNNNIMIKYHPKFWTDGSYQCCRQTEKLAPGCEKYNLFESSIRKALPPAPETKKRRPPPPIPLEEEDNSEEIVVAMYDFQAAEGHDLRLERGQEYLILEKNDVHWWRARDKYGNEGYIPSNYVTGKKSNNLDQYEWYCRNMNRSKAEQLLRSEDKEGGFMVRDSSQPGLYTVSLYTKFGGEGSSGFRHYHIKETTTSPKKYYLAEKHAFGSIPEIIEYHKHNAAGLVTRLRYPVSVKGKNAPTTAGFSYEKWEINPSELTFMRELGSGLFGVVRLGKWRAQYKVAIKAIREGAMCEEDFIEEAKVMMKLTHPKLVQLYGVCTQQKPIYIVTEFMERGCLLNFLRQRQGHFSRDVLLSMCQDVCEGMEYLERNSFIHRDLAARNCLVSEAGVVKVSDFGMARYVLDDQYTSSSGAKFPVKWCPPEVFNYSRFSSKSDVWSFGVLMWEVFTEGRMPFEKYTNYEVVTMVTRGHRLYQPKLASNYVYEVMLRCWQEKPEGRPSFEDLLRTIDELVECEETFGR

[3] = target: 3-phosphoinositide-dependent protein kinase 1 (PDPK1) (Homo sapiens) (UniProt O15530); test: Inhibition of human wild type PDK1 using bio-4xCHKT as substrate preincubated for 2 hrs followed by ATP addition and measured every 2 mins for […] by spectrophotometric analysis

Measured: IC50

Sequence of Serine/threonine-protein kinase OSR1 (OXSR1) (Homo sapiens) (O95747 whole entry, looked up): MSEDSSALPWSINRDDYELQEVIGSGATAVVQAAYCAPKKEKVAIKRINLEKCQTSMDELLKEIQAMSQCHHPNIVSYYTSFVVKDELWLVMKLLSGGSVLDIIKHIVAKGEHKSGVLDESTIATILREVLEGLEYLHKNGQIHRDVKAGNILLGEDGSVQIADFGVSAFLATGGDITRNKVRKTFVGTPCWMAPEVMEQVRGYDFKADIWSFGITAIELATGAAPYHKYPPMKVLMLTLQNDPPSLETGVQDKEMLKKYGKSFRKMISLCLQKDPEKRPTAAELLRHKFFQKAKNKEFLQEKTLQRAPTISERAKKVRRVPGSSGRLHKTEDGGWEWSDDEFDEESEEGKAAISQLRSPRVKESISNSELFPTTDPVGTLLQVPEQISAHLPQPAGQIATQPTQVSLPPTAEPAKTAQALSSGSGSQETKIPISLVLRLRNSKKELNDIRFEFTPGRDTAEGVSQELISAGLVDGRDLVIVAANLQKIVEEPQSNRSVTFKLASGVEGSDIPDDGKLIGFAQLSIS

CNC(=O)c1cc(Oc2ccc(NC(=O)Nc3cc(C(C)(C)C)nn3-c3ccc4ncccc4c3)c(F)c2)ccn1 [Rebastinib]
> 1000 nM: all assays above
